Experimental findings from PubChem BioAssay (NCI) are described below.

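Tested at 5 concentrations; 48 h exposure; 96-well plates; endpoints linearly interpolated, else capped at highest concentration. TGI marks complete inhibition of growth.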

Test systems include OVCAR-4 ovarian; SNB-19 CNS; A549 NSCLC; HOP-62 NSCLC; NCI-H460 lung; TK-10 renal; UO-31 renal; SK-MEL-28 melanoma; SF-539 CNS; OVCAR-8 ovarian.
What all share (experiment): DTP human tumour cell line panel, 48 h

The term TGI denotes the concentration giving total growth inhibition. A high value points to less potent growth arrest. On to `COc1ccc(C(C)NNC(=O)c2ccncc2)cc1F` (stereo not drawn), for which the concentration for total growth inhibition (TGI) with OVCAR-4 ovarian, in the test on SNB-19 CNS, with A549 NSCLC, in the test on HOP-62 NSCLC, in the test on NCI-H460 lung and in the test on TK-10 renal was more than 100 µM in each case. For the same compound, the TGI in the test with UO-31 renal, in the test with SK-MEL-28 melanoma, in the test with SF-539 CNS and in the test with OVCAR-8 ovarian was more than 100 µM in each case.
As for `CCOC(=O)c1cn(C)nc1N/C(C)=C\C(=O)c1ccccc1`, the TGI with OVCAR-4 ovarian, with SNB-19 CNS, with A549 NSCLC, in the test on HOP-62 NSCLC, in the test on NCI-H460 lung and in the test with TK-10 renal was more than 100 µM in each case. The TGI in the test with UO-31 renal, with SK-MEL-28 melanoma, in the test with SF-539 CNS and in the test on OVCAR-8 ovarian was more than 100 µM throughout.
For `O=C(NCc1ccccc1)c1c(O)c2ccccc2[nH]c1=O`, the TGI in the test with OVCAR-4 ovarian, with SNB-19 CNS, with A549 NSCLC, in the test with HOP-62 NSCLC, in the test on NCI-H460 lung and with TK-10 renal was more than 100 µM in each case. The TGI in the test on UO-31 renal, in the test on SK-MEL-28 melanoma, in the test on SF-539 CNS and in the test on OVCAR-8 ovarian was more than 100 µM in each case.
Turning to `O=C(NC/C=C/Br)NC1CCNc2ccccc21` (stereo not drawn), the TGI with OVCAR-4 ovarian, in the test on SNB-19 CNS, with A549 NSCLC, in the test with HOP-62 NSCLC, with NCI-H460 lung and in the test with TK-10 renal was more than 100 µM throughout. The concentration for total growth inhibition (TGI) with UO-31 renal was 62.6 µM; in the test on SK-MEL-28 melanoma, more than 100 µM; in the test with SF-539 CNS, 45.8 µM; with OVCAR-8 ovarian, more than 100 µM.
Turning to `COC(=O)C1[C@H](C(=O)OC)C1(Br)CBr` (stereo partly drawn), the TGI in the test with OVCAR-4 ovarian, in the test with SNB-19 CNS, in the test with A549 NSCLC, with HOP-62 NSCLC, with NCI-H460 lung and in the test on TK-10 renal was more than 100 µM throughout. For the same compound, the TGI in the test with UO-31 renal, in the test with SK-MEL-28 melanoma, in the test with SF-539 CNS and in the test with OVCAR-8 ovarian was more than 100 µM each time.
As for `C=C1C(=O)O[C@H]2[C@H]([C@H](C)CCCC(C)=O)O[C@H]([C@@]3(C)CCC(=O)O3)C[C@@H]12`, the TGI is more than 100 µM in the test with OVCAR-4 ovarian; more than 100 µM in the test on SNB-19 CNS; more than 100 µM in the test with A549 NSCLC; more than 100 µM in the test with HOP-62 NSCLC; more than 100 µM with NCI-H460 lung; 52.3 µM in the test on TK-10 renal. Also, the TGI in the test with UO-31 renal, in the test with SK-MEL-28 melanoma, in the test on SF-539 CNS and in the test with OVCAR-8 ovarian was more than 100 µM each time.
As to `COc1ccc(NC(=S)NNC(=O)c2cc(-c3ccccc3)nc3ccccc23)cc1`, the TGI was 65.1 µM in the test with OVCAR-4 ovarian; more than 100 µM with SNB-19 CNS; 47 µM with A549 NSCLC; 33.3 µM in the test on HOP-62 NSCLC; 35.9 µM in the test on NCI-H460 lung; 46.8 µM in the test on TK-10 renal. Further, the TGI in the test with UO-31 renal came out at 26.3 µM; in the test with SK-MEL-28 melanoma, 43.3 µM; with SF-539 CNS, 27.2 µM; in the test on OVCAR-8 ovarian it was 38.9 µM.
As to `CCCC(=O)OC1CC(n2cc(F)c(=O)[nH]c2=O)OC1CO` (stereo not drawn), the TGI in the test with OVCAR-4 ovarian was more than 10 µM; in the test on SNB-19 CNS it was more than 10 µM; with A549 NSCLC, more than 10 µM; with HOP-62 NSCLC it was more than 10 µM; in the test on NCI-H460 lung, more than 10 µM; with TK-10 renal, more than 8.81 µM. The TGI in the test on UO-31 renal is more than 10 µM; in the test with SK-MEL-28 melanoma, more than 10 µM; in the test on SF-539 CNS it was 0.385 µM; in the test with OVCAR-8 ovarian, more than 10 µM.
Turning to `CN(C)c1ccc(/C=C2\C[C@H]3[C@@H]4CCc5cc(O)ccc5[C@H]4CC[C@]3(C)C2=O)cc1`, the TGI in the test on OVCAR-4 ovarian, in the test with SNB-19 CNS, with A549 NSCLC, in the test on HOP-62 NSCLC, with NCI-H460 lung and in the test on TK-10 renal was more than 100 µM in each case. For the same compound, the TGI with UO-31 renal is more than 100 µM; with SK-MEL-28 melanoma it was more than 100 µM; with SF-539 CNS, 62.8 µM; in the test on OVCAR-8 ovarian, more than 100 µM.
Consider `COc1cc(-c2[o+]c3cc(O)cc(OC4OC(CO)C(O)C(O)C4O)c3cc2OC2OC(CO)C(O)C(O)C2O)cc(OC)c1O` (stereo not drawn), for which the TGI in the test on OVCAR-4 ovarian, in the test with SNB-19 CNS, with A549 NSCLC, in the test on HOP-62 NSCLC, in the test on NCI-H460 lung and with TK-10 renal was more than 100 µM each time. In addition, the TGI in the test with UO-31 renal, in the test with SK-MEL-28 melanoma, with SF-539 CNS and with OVCAR-8 ovarian was more than 100 µM each time.
On to `Cc1nnc2sc(-c3ccc([N+](=O)[O-])o3)nn12`, for which the TGI with OVCAR-4 ovarian is 30.7 µM; in the test with SNB-19 CNS it was 35.3 µM; with A549 NSCLC, more than 100 µM; in the test with HOP-62 NSCLC, 28.5 µM; with NCI-H460 lung, 49.4 µM; with TK-10 renal it was 28.6 µM. Moreover, the TGI in the test with UO-31 renal came out at 32.6 µM; with SF-539 CNS, 18.2 µM; with OVCAR-8 ovarian it was 27.5 µM.
Consider `COC(=O)C(C(=O)OC)C1CC(=O)c2c(Br)sc(Br)c21` (stereo not drawn), for which the TGI was determined as 26.3 µM with OVCAR-4 ovarian; 47.3 µM in the test on SNB-19 CNS; 68.8 µM in the test with A549 NSCLC; 46.3 µM with HOP-62 NSCLC; 40.4 µM in the test on NCI-H460 lung; 86.7 µM in the test with TK-10 renal. In addition, the TGI in the test with UO-31 renal was found to be 29.5 µM; in the test on SK-MEL-28 melanoma, 34.2 µM; with SF-539 CNS, 42.6 µM; in the test with OVCAR-8 ovarian it was 37.8 µM.
Consider `O=S(=O)(O)c1ccc(Nc2ccnc3cc(Cl)ccc23)cc1`, for which the TGI in the test on OVCAR-4 ovarian, with SNB-19 CNS, with A549 NSCLC, with HOP-62 NSCLC, in the test on TK-10 renal and in the test on UO-31 renal was more than 100 µM each time. The TGI in the test on SK-MEL-28 melanoma, with SF-539 CNS and in the test with OVCAR-8 ovarian was more than 100 µM in each case.
